The text below walks through data of patent US20160279246A1, “METHODS AND SYSTEMS FOR CONTINUOUS HETEROGENEOUS CRYSTALLIZATION” (Massachusetts Institute of Technology, priority 2015, published 2016).

The data set can be described thus: Solubility of API and excipient in the solvent ethanol. In kind it is physicochemical. The source says:
The API-Excipient-Solvent selection was important to this process. The specific API chosen was soluble in the solvent; however the excipient was insoluble in the same solvent. The API-Excipient combination was such that the API molecules easily nucleate on the surface of the excipient. Use of low supersaturation stopped primary nucleation, and ensures the presence of heterogeneous nuclei alone. These nuclei grew further during their stay inside the column. Tuning of residence time and supersaturation helps in tuning of the loading (weight of API per unit weight of product) of excipient particles with drug.
An exemplary embodiment was implemented with Acetaminophen-D-mannitol-Ethanol as a sample API-Excipient-Solvent system. Acetaminophen was soluble in ethanol; however D-mannitol was insoluble in ethanol.

Each structure is given as a SMILES string.

On to `OC[C@@H](O)[C@@H](O)[C@H](O)[C@H](O)CO` [D-mannitol], for which the Solubility in ethanol entry is “insoluble”.

As to `CC(=O)Nc1ccc(O)cc1` [Acetaminophen], the Solubility in ethanol result is on record as “soluble”.
